Values joined by “and” are separate entries in the source; they are usually repeats but may differ in a detail not shown here. Equal entries are not always repeated. “Also recorded” adds a separate entry of the source. Where two headings read alike, the source gives them in different places.
Columns and labels:
[1] = system: mouse sepsis model (LPS 75 mg/kg); assay: Effects of different doses of pirenzepine in LPS mouse sepsis model; conditions: 0.3-1.2 mg/kg i.p.; no statistically significant difference between dose groups
Method: After 30 minutes, LPS (75 mg/kg) was injected intraperitoneally to produce a mouse sepsis model.

[2] = system: gastric and duodenal ulcers; conditions: patients; cited from earlier work
[3] = cited from earlier work
[4] = system: liver tissue of rats with sepsis shock; assay: Pathological change in liver tissue under microscope, rats with sepsis shock; assay type: in vivo; conditions: compared with the endotoxin group
Method: (§1) The model of septic shock in mice was induced by intraperitoneal injection of a toxic dose of 75 mg/kg endotoxin. […] The model of sepsis shock in mice was induced by intraperitoneal injection of a total lethal dose of 150 mg/kg endotoxin. […] Mice injected intraperitoneally with placebo in place of endotoxin were used as a normal control group.

[5] = system: mice with sepsis shock induced by 75 mg/kg endotoxin; assay: Survival of mice with sepsis shock induced by 75 mg/kg endotoxin; assay type: in vivo; conditions: for number of mice survived / number of mice died: 10 mice per group; for number of mice survived: endotoxin group 4 survived; for number of mice died: endotoxin group 6 died; for survival rate of mice: sepsis shock induced by 75 mg/kg endotoxin i.p., 10 animals per group, endotoxin group 40%, normal control 100%
Method: as §1
The model of sepsis shock in mice was induced with 75 mg/kg endotoxin.

[6] = system: mice with sepsis shock induced by 150 mg/kg endotoxin; assay: Survival time of mice with sepsis shock induced by 150 mg/kg endotoxin; assay type: in vivo; conditions: for average survival time of mice: 150 mg/kg endotoxin i.p. (total lethal dose), endotoxin group 29.15±6.84 hours, p<0.05 vs endotoxin group
Method: as §1
The septic shock in mice was induced with 150 mg/kg endotoxin and the survival curves were plotted according to the survival time of mice in each group.

[7] = cited from earlier work; remark: listed apart in the source
[8] = system: lung tissue of rats with sepsis shock; assay: Pathological change in lung tissue under microscope, rats with sepsis shock; assay type: in vivo; conditions: compared with the endotoxin group
TNF-α in serum = assay: Serum TNF-α concentration in rats with endotoxin-induced sepsis shock; assay type: in vivo
[9] = 0 min after sepsis shock was reached, endotoxin group 641.05±24.75, normal control 159.36±50.40
[10] = 30 min after sepsis shock was reached, endotoxin group 677.95±47.05, normal control 223.41±27.42
[11] = 90 min after sepsis shock was reached, endotoxin group 716.11±24.41, normal control 166.86±28.80

| Structure (SMILES) | pathological changes of the liver tissue under microscope [4] | number of mice survived ([5]; 75 mg/kg endotoxin) | number of mice died ([5]; 75 mg/kg endotoxin) | survival rate of mice [5] [%] | average survival time of mice [6] [h] | pathological changes of the lung tissue under microscope [8] | concentration of TNF-α in serum of rats (TNF-α in serum; [9]) | concentration of TNF-α in serum of rats (TNF-α in serum; [10]) | concentration of TNF-α in serum of rats (TNF-α in serum; [11]) | other results |
| --- | --- | --- | --- | --- | --- | --- | --- | --- | --- | --- |
| CN1CCN(CC(=O)N2c3ccccc3C(=O)Nc3cccnc32)CC1 [pirenzepine, 11-[(4-methylpiperazin-1-yl)acetyl]-5,11-dihydro-6H-pyrido[2,3-b][1,4]benzodiazepin-6-one] | the lesions were all relieved; also recorded: the lesions were reduced | 8 | 2 | 80 | 44.6 ± 11.96 | congestion, exudation, and necrosis were significantly reduced; also recorded: the exudation was significantly reduced, and edema and inflammation in the alveolar septum were reduced | 378.12±17.87 pg/mL and 378.12 ± 17.87^a pg/mL | 418.19±22.75 pg/mL and 418.19 ± 22.75^c pg/mL | 446.35±33.04 pg/mL and 446.35 ± 33.04^e pg/mL | effect of low-dose pretreatment on survival time of mice with sepsis [1]: can prolong the survival time; healing rate of the ulcer [2]: 70%-94%; solubility ([3]; in anhydrous ethanol): very easily soluble; solubility ([3]; in formic acid): soluble; solubility ([3]; in methanol): insoluble; solubility ([3]; in water): soluble; effect on mortality of mice with sepsis ([5]; 75 mg/kg endotoxin, FIG. 1): significantly reduced the mortality; effect on mortality of mice with sepsis ([6]; 150 mg/kg endotoxin, FIG. 2): significantly reduced the mortality; plasma protein binding rate ([7]; in vivo): about 10%; plasma t½ ([7]; in vivo): 10 to 12 h; tmax ([7]; oral): 2 to 3 h; absolute bioavailability ([7]; oral, printed spread (±4,6%)): about 26%; serum TNF-α concentrations compared with the endotoxin-untreated group (TNF-α in serum; rats, at 0, 30, 90 and 150 minutes, p<0.05): significantly lower |
| CN1[C@@H]2CC[C@H]1C[C@@H](OC(=O)C(CO)c1ccccc1)C2 (some centres unmarked) [atropine] | the lesions were all relieved; also recorded: the edema and necrosis of hepatocytes were all reduced | 7 | – | 70 | 37.15 ± 9.27 | congestion, exudation, and necrosis were significantly reduced; also recorded: the exudation was significantly reduced, and alveolar septum widening was reduced | – | – | 598.54±48.85 pg/mL and 598.54 ± 48.85^f pg/mL | – |
| CCN(CC)CC1CCCCN1CC(=O)N1c2ccccc2C(=O)Nc2cccnc21 (centres unmarked) [AF-DX116, 11-[[2-[(Diethylamino)methyl]-1-piperidinyl]acetyl]-5,11-dihydro-6H-pyrido[2,3-b][1,4]benzodi azepin-6-one] | cell necrosis was more serious; also recorded: cell necrosis was more severe | 1 | 9 | 10 | 16.02 ± 2.06 | the destruction of the tissue was aggravated; also recorded: pathological changes were aggravated | 706.19 ± 6.00 pg/mL | 757.48 ± 51.40 pg/mL | 857.21 ± 74.14 pg/mL | concentration of TNF-α in serum of rats (TNF-α in serum; 150 min after sepsis shock was reached, endotoxin group 737.00±16.38, normal control 161.47±9.75): 932.22 ± 17.25 pg/mL |
